Legend:
[1] = Characterization of lipid nanoparticles encapsulating Fluc-mRNA prepared from different cap structures; type: physicochemical; settings: for Particle size: LNP (YK-009/DSPC/cholesterol/DMG-PEG2000) with Fluc-mRNA transcribed using the named cap analog; for PDI: LNP with Fluc-mRNA transcribed using the named cap analog; for EE: encapsulation efficiency of LNP with Fluc-mRNA transcribed using the named cap analog
Description: Cationic lipid YK-009 (Beijing Youcare Kechuang Pharmaceutical Technology Co., Ltd.), DSPC (AVT (Shanghai) Pharmaceutical Technology Co., Ltd.), cholesterol (AVT (Shanghai) Pharmaceutical Technology Co., Ltd.), and DMG-PEG2000 were dissolved in ethanol at a molar ratio of 49:10:39.5:1.5, and the mRNA was diluted in 50 mM citrate buffer (pH=4). The ethanol lipid solution was mixed with the Fluc-mRNA aqueous solution prepared from different cap structures at a volume ratio of 1:3 using a microfluidic device at a flow rate of 10 mL/min to prepare LNPs at a weight ratio of total lipid to mRNA of approximately 15:1.
The resulting liposomes were diluted to 10-fold volume with PBS, and then ultrafiltered with a 300 KDa ultrafiltration tube to remove ethanol. The volume was then fixed to a certain volume with PBS. Finally, the LNPs were filtered through a 0.2 μm sterile filter to obtain an LNP preparation encapsulating Fluc-mRNA using YK-009/DSPC/cholesterol/DMG-PEG2000 (at a molar ratio of 49:10:39.5:1.5).
The particle size and polydispersity index (PDI) were determined by dynamic light scattering using a Malvern laser particle size analyzer. 10 μL of the liposome solution was taken, diluted to 1 mL with RNase-free deionized water, and added to a sample pool. Each sample was measured in triplicate. The measurement conditions were: a scattering angle of 90° and a temperature of 25° C. The encapsulation efficiency of LNPs was determined using the Quant-iT RiboGreen RNA Quantification Kit (Thermo Fisher Scientific, UK) according to the manufacturer's instructions.

[2] = test system: HEK293T cells; assay: Translation efficiency of different capped luciferase mRNAs; type: cell-based; settings: for Relative fluorescence intensity: HEK293T, 0.5 μg mRNA per well, 24 hours, proportional to translation efficiency; for Multiple of m6A (relative fluorescence intensity): relative to m6A
Description: • (1) HEK293T cells were cultured in DMEM medium containing 10% FBS and penicillin/streptomycin at 37° C. with 5% CO2. • (2)Cells in the culture dish were digested and counted, then spread in a 96-well plate at 10,000 cells per well, and cultured overnight until the cells adhered to the wall. • (3) When the cell density reached approximately 80%, transfection was performed by adding 0.5 μg of mRNA sample and Lipofectamine MessengerMAX Transfection Reagent (Invitrogen) per well according to the manufacturer's instructions. • (4) After the transfected cells were cultured at 37° C. with 5% CO2 for 24 hours, the growth medium was removed from the cells to be tested, and the cells were rinsed with PBS. After centrifugation to remove PBS, 50 μL of 1× lysis buffer was added. The cells and all liquid were transferred to a microcentrifuge tube and centrifuged. • (5) 20 μL of sample was taken and added to 100 μL of Dual-Lumi™ II Luciferase Assay Reagent pre-equilibrated to room temperature, and mixed appropriately. • (6) The mixture was incubated at room temperature (approximately 25° C.) for 5 minutes to stabilize the luminescence signal. Chemiluminescence was detected using a multifunctional microplate reader with a function for detecting chemiluminescence, and the data were recorded.
The relative fluorescence intensity is proportional to the translation efficiency of mRNA.

[3] = target: T1, DCP2 enzyme (Schizosaccharomyces pombe, UniProt O13828); assay: Decapping enzyme stability test; type: biochemical; settings: for Decapping rate (%) of DCP2 enzyme: 50 U mRNA decapping enzyme, 37° C., 45 minutes
T1 construct: purchased New England Biolabs
T1 sequence (O13828 1-243 limits assumed): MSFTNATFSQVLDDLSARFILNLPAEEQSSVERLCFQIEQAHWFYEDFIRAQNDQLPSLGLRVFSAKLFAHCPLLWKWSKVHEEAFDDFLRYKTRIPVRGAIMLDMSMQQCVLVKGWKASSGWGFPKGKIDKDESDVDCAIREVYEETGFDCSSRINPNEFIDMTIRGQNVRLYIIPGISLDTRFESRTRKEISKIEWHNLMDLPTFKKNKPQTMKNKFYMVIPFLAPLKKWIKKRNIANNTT
T1 sequence (Q9P805 1-127 partner): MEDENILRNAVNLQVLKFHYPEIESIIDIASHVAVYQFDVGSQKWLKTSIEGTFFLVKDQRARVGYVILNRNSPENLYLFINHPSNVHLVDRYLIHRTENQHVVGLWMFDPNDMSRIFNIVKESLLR
T1 sequence (Q10108 155-180 partner limits assumed): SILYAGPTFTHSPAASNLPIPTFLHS
Description: […] of RNA purified by polyacrylamide gel electrophoresis (PAGE) was subjected to an enzymatic reaction with 50 U of mRNA decapping enzyme (New England Biolabs) and 1×MDE buffer at 37° C. for 45 minutes. The enzymatic reactants were subjected to PAGE and stained with SYBR Green II (Lonza), followed by observation of the post-electrophoresis gel image on a Typhoon FLA 7000 (GE Healthcare) instrument. The electrophoresis band intensity ratio of RNA capping to RNA decapping was counted using ImageQuant (GE Healthcare) software, and the decapping rate of the decapping enzyme was calculated.

[4] = test system: BALB/C mice; assay: In vivo imaging of Fluc-mRNA LNP expression in mice
Description: The LNP preparation containing 5 μg of cap analog-transcribed Fluc-mRNA was intramuscularly injected into female BALB/C mice aged 4 to 6 weeks and weighing 17 to 19 g. At specific time points after administration (6 hours, 12 hours, 24 hours, 48 hours, 96 hours, and 168 hours), the mice were intraperitoneally injected with fluorescence imaging substrate. The mice were then allowed to move freely for 5 minutes, followed by detection of the total radiation intensity of the protein expressed by LNP-carrying mRNA in the mice using an IVIS Spectrum small-animal in vivo imaging system (corresponding to the amount of protein expression).
In the in vivo imaging experiments in mice, the multiple of the total radiation intensity for each group of mice relative to the m6A group is shown in Table 8 (where the total radiation intensity is represented as the given value×10^8 p/s).

[5] = 6 h, 5 μg Fluc-mRNA LNP intramuscular, mice
[6] = 12 h, 5 μg Fluc-mRNA LNP intramuscular, mice
[7] = 24 h, 5 μg Fluc-mRNA LNP intramuscular, mice
[8] = 48 h, 5 μg Fluc-mRNA LNP intramuscular, mice
[9] = 96 h, 5 μg Fluc-mRNA LNP intramuscular, mice
[10] = 168 h, 5 μg Fluc-mRNA LNP intramuscular, mice

SMILES	Particle size [1]	PDI [1]	EE [1]	Relative fluorescence intensity [2]	Multiple of m6A (relative fluorescence intensity) [2]	Decapping rate (%) of DCP2 enzyme [3]	Decrease relative to N-7113 (decapping rate) [3]	Multiple of total radiation intensity relative to m6A ([4]; 6 h)	Total radiation intensity [4, 5]	Multiple of total radiation intensity relative to m6A ([4]; 12 h)	Total radiation intensity [4, 6]	Multiple of total radiation intensity relative to m6A ([4]; 24 h)	Total radiation intensity [4, 7]	Multiple of total radiation intensity relative to m6A ([4]; 48 h)	Total radiation intensity [4, 8]	Multiple of total radiation intensity relative to m6A ([4]; 96 h)	Total radiation intensity [4, 9]	Total radiation intensity [4, 10]	Total radiation intensity ([4]; at 12 hours)	Total radiation intensity ([4]; at 48 hours)
CCO[C@@H]1[C@H](OP(=O)(O)OC[C@H]2O[C@@H](n3cnc4c(=O)[nH]c(N)nc43)[C@H](O)[C@@H]2O)[C@@H](COP(=O)(O)OP(=O)(O)OP(=O)(O)OC[C@H]2O[C@@H]([n+]3cn(C)c4c(=O)[nH]c(N)nc43)[C@H](O)[C@@H]2O)O[C@H]1n1cnc2c(N)ncnc21 [CAP-2′O-ethyl, reference compound]	81.34 nm	0.035	96.3%	1.13	3.0	28.3%	15.5%	2.3	5.41 ×108 p/s	2.3	4.80 ×108 p/s	2.6	1.73 ×108 p/s	1.1	0.57 ×108 p/s	2.4	0.09 ×108 p/s	0.02 ×108 p/s		
CNc1ncnc2c1ncn2[C@@H]1O[C@H](COP(=O)(O)OP(=O)(O)OP(=O)(O)OC[C@H]2O[C@@H]([n+]3cn(C)c4c(=O)[nH]c(N)nc43)[C@H](O)[C@@H]2O)[C@@H](OP(=O)(O)OC[C@H]2O[C@@H](n3cnc4c(=O)[nH]c(N)nc43)[C@H](O)[C@@H]2O)[C@H]1OC [m6A, reference compound]	75.76 nm	0.047	93.8%	0.38	1.0	33.8%	10.0%	1.0	2.35 ×108 p/s	1.0	2.12 ×108 p/s	1.0	0.66 ×108 p/s	1.0	0.52 ×108 p/s	1.0	0.08 ×108 p/s	0.02 ×108 p/s	2.12 ×10^8 p/s	0.52 ×10^8 p/s
CO[C@@H]1[C@H](OP(=O)(O)OC[C@H]2O[C@@H](n3cnc4c(=O)[nH]c(N)nc43)[C@H](O)[C@@H]2O)[C@@H](COP(=O)(O)OP(=O)(O)OP(=O)(O)OC[C@H]2O[C@@H]([n+]3cn(C)c4c(=O)[nH]c(N)nc43)[C@H](O)[C@@H]2O)O[C@H]1n1cnc2c(N)ncnc21 [N-7113, reference compound]	87.45 nm	0.078	96.1%	1.00	2.6	43.8%	0.0%	2.2	5.10 ×108 p/s	2.0	4.33 ×108 p/s	2.3	1.49 ×108 p/s	0.9	0.49 ×108 p/s	2.4	0.05 ×108 p/s	0.02 ×108 p/s	4.33 ×10^8 p/s	0.49 ×10^8 p/s
COC[C@H]1[C@@H](O)[C@H]([n+]2cn(C)c3c(=O)[nH]c(N)nc32)O[C@@H]1COP(=O)(O)OP(=O)(O)OP(=O)(O)OC[C@H]1O[C@@H](n2cnc3c(N)ncnc32)[C@H](OC)[C@@H]1OP(=O)(O)OC[C@H]1O[C@@H](n2cnc3c(=O)[nH]c(N)nc32)[C@H](O)[C@@H]1O [HN3002, reference compound]	75.35 nm	0.058	95.1%		3.0	23.3%	20.5%													

Reference: patent US12576099B2, “Ribose-modified cap analog and use thereof” (Beijing Youcare Kechuang Pharmaceutical Technology Co., Ltd., priority 2024, dated 2026)
